Where “and” joins values, the source holds several entries; their conditions need not be identical. Equal entries are not always repeated.
Legend:
CK1δ = system: CK1δ; parameters: method as in PMID 20577972; conditions: standards; cited from earlier work
[1] = target: T1, Human recombinant Casein Kinase 1 delta (CK1δ) (Homo sapiens, UniProt P48730); test: CK-1δ Kinase-Glo assay; format: biochemical; conditions: for IC50: human recombinant enzyme, mean of two independent experiments, read-out: IC50 CK1δ (µM ± SD); for CK1δ inhibition (value in parentheses): screening at fixed concentration of 10 µM
T1 construct: purchased Millipore (Millipore Iberica S.A.U.)
T1 sequence (P48730 whole entry): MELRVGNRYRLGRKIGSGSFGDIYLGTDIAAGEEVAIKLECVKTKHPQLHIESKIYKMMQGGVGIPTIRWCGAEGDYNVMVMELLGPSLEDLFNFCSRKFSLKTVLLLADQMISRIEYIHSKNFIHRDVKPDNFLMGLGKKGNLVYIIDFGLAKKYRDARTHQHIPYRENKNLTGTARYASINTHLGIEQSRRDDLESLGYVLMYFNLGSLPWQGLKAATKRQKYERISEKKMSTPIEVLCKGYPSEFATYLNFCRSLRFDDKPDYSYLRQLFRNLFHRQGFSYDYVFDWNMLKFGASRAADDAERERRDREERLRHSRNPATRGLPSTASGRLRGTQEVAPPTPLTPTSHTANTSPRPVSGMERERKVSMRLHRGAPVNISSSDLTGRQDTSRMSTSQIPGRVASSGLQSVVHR
Protocol: (§1) The Kinase-Glo Kit was purchased from Promega (Promega Biotech Ibérica, SL) and was used to screen compounds for activity against CK-1δ and CK1ε. Human recombinant Casein Kinase 1 delta and epsilon was purchased from Millipore (Millipore Iberica S.A.U.). Casein solution from bovine milk, 5%, was purchased from Sigma-Aldrich (St. Louis, MO, USA). ATP and all other reagents were from Sigma-Aldrich (St. Louis, MO, USA). Kinase-Glo assays were performed in assay buffer using black 96-well plates. In a typical assay, 10 µL of test compound (dissolved in DMSO at 1 mM concentration and diluted in advance in assay buffer to the desired concentration) 10 µL (16 ng) of enzyme were added to each well followed by 20 µL of assay buffer containing 0.1% casein as substrate and 4 µM ATP. […] After 60 min incubation at 30 °C the enzymatic reaction was stopped with 40 µL of Kinase-Glo reagent. Glow-type luminescence was recorded after 10 min using a FLUOstar Optima (BMG Labtechnologies GmbH, Offenburg, Germany) multimode reader. The activity is proportional to the difference of the total and consumed ATP. The inhibitory activities were calculated on the basis of maximal activities measured in the absence of inhibitor. […] Each value is the mean of two independent experiments.
Compounds were screened against human recombinant enzyme CK1δ at a fixed concentration of 10 µM.

[2] = target: T2, Human recombinant Casein Kinase 1 epsilon (CK1ε) (Homo sapiens, UniProt P49674); test: CK-1ε Kinase-Glo assay; format: biochemical; conditions: for IC50: human recombinant enzyme, mean of two independent experiments, read-out: IC50 CK1ε (µM ± SD)
T2 construct: purchased Millipore (Millipore Iberica S.A.U.)
T2 sequence (P49674 whole entry): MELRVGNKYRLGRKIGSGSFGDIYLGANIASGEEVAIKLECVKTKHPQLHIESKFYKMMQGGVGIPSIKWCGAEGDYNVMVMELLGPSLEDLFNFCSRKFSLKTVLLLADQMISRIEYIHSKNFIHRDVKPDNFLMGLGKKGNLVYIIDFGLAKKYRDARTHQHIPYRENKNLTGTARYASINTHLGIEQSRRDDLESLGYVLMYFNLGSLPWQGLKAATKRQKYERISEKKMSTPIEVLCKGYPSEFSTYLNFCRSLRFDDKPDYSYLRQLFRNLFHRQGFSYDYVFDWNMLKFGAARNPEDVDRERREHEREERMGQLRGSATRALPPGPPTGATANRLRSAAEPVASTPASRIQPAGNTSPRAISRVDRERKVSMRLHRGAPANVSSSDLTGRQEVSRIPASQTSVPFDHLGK
Protocol: as §1, with “experiments. […]” for “experiments.”

[3] = target: amyloid-beta binding alcohol dehydrogenase (ABAD); parameters: method as in PMID 27287370; conditions: cited from earlier work
PAMPA-BBB assay = conditions: for Pe (10^−6 cm s^−1): 2.5 h
Protocol: Prediction of the BBB penetration was evaluated using a parallel artificial membrane permeability assay (PAMPA) using the setup according to Di et al.[12]. Ten commercial drugs, phosphate buffer saline solution at pH 7.4 (PBS), Ethanol and dodecane were purchased from Sigma, Acros organics, Merck, Aldrich and Fluka. […] Filter PDVF membrane units (diameter 30 mm, pore size 0.45 µm) from Symta were used to filtered the samples. A 96-well plate UV reader (Thermo Scientific, Multiskan spectrum) was used for the UV measurements. […] About 100 µL of this compound stock solution was taken and […] of EtOH and 3500 µL of PBS pH = 7.4 buffer were added to reach 30% of EtOH concentration in the experiment. These solutions were filtered. The acceptor 96-well microplate was filled with 180 µL of PBS/EtOH (70/30). The donor 96-well plate was coated with 4 µL of porcine brain lipid in dodecane (20 mg mL^−1) and after 5 min, 180 µL of each compound solution was added. About 1–2 mg of every compound to be determined their ability to pass the brain barrier were dissolved in 1500 µL of EtOH and 3500 µL of PBS pH = 7.4 buffer, filtered and then added to the donor 96-well plate. Then the donor plate was carefully put on the acceptor plate to form a “sandwich”, which was left undisturbed for 2 h and 30 min at 25 °C. During this time the compounds diffused from the donor plate through the brain lipid membrane into the acceptor plate. After incubation, the donor plate was removed. UV plate reader determined the concentration of compounds and commercial drugs in the acceptor and the donor wells. Every sample was analysed at three to five wavelengths, in three wells and in two independent runs. […] 10 quality control compounds (previously mentioned) of known BBB permeability were included in each experiment to validate the analysis set.
Parallel Artificial Membrane Permeability Assay (PAMPA) is technique developed to predict passive permeability through biological membranes. […] An assay validation was made comparing the reported permeability values of commercial drugs with the experimental data obtained employing this methodology.

CK1ε = system: CK1ε; parameters: method as in PMID 20577972; conditions: standards; cited from earlier work

Row | IC50 [1] | IC50 [2] | SI (Selectivity index = IC50CK1ε/IC50CK1δ) [1] | Structure (SMILES) | other results
2 | 1.37 ± 0.23 µM | – | – | O=C(Nc1ccc(O)cc1)Nc1nc2ccc(F)cc2s1 [Compound K684] | –
3 | 0.59 ± 0.06 µM | 9.01 ± 0.37 µM | 15.3 | O=C(Nc1ccc(O)cc1)Nc1nc2ccc(Cl)cc2s1 [Compound K685] | –
4 | 0.86 ± 0.1 µM | 4.02 ± 0.16 µM | 4.7 | O=C(Nc1cccc(O)c1)Nc1nc2ccc(F)cc2s1 [Compound K686] | –
5 | – | ~2 µM and 1.92 µM | 12.0 | O=C(Nc1cccc(O)c1)Nc1nc2ccc(Cl)cc2s1 [Compound K687] | –
6 | 0.9 ± 0.14 µM | 7.33 ± 0.29 µM | 8.1 | O=C(Nc1nc2ccc(F)cc2s1)Nc1ccccc1O [Compound K688] | –
7 | < 0.5 µM and 0.48 µM | 3.91 ± 0.4 µM | 8.1 | O=C(Nc1nc2ccc(Cl)cc2s1)Nc1ccccc1O [Compound K689] | –
8 | 0.84 ± 0.16 µM | 10.1 ± 0.74 µM | 12.0 | O=C(Nc1ccc(O)c(Cl)c1)Nc1nc2ccc(F)cc2s1 [Compound K690] | IC50 [3]: 1890 nM; ability to cross the BBB (in words) (PAMPA-BBB assay): able to cross the BBB by passive permeation; Pe (10^−6 cm s^−1) (PAMPA-BBB assay; pig, pH 7.4): 13.2 ± 1.4 10^−6 cm s^−1
9 | 0.73 ± 0.21 µM | 3.01 ± 0.33 µM | 4.1 | O=C(Nc1ccc(O)c(Cl)c1)Nc1nc2ccc(Cl)cc2s1 [Compound K691] | IC50 [3]: 1670 nM; ability to cross the BBB (in words) (PAMPA-BBB assay): able to cross the BBB by passive permeation; Pe (10^−6 cm s^−1) (PAMPA-BBB assay; pig, pH 7.4): 14 ± 2 10^−6 cm s^−1
10 | 0.91 ± 0.31 µM | 8.41 ± 0.71 µM | 9.2 | O=C(Nc1ccc(O)c(C(=O)O)c1)Nc1nc2ccc(F)cc2s1 [Compound K692] | –
11 | < 0.5 µM and 0.4 µM | ~2 µM and 2.29 µM | 5.7 | O=C(Nc1ccc(O)c(C(=O)O)c1)Nc1nc2ccc(Cl)cc2s1 [Compound K693] | –
12 | 7.38 ± 0.93 µM | – | – | COc1ccc(NC(=O)Nc2nc3ccc(F)cc3s2)cc1 [Compound K694] | –
13 | 8.87 ± 0.73 µM | – | – | COc1ccc(NC(=O)Nc2nc3ccc(Cl)cc3s2)cc1 [Compound K695] | –
14 | > 10 µM | – | – | COc1ccc(NC(=O)Nc2nc3ccc(F)cc3s2)cc1OC [Compound K696] | CK1δ inhibition (value in parentheses) [1]: 23%
15 | 0.69 ± 0.19 µM | > 10 µM | >14.5 | COc1ccc(NC(=O)Nc2nc3ccc(Cl)cc3s2)cc1OC [Compound K697] | CK1ε inhibition (value in parentheses) ([2]; printed beside IC50 >10 µM): 26%
16 | 3.37 ± 0.4 µM | – | – | COc1ccc(NC(=O)Nc2nc3ccc(F)cc3s2)cc1C(=O)O [Compound K698] | –

Row | IC50 [1] | IC50 [2] | SI (Selectivity index = IC50CK1ε/IC50CK1δ) [1] | Structure (SMILES) | other results
17 | < 0.5 µM and 0.46 µM | 3.49 ± 0.09 µM | 7.6 | COc1ccc(NC(=O)Nc2nc3ccc(Cl)cc3s2)cc1C(=O)O [Compound K699] | –
18 | > 10 µM | – | – | O=C(Nc1ccc(Oc2ccccc2)cc1)Nc1nc2ccc(F)cc2s1 [Compound K700] | CK1δ inhibition (value in parentheses) [1]: 36%
19 | > 10 µM | – | – | O=C(Nc1ccc(Oc2ccccc2)cc1)Nc1nc2ccc(Cl)cc2s1 [Compound K701] | CK1δ inhibition (value in parentheses) [1]: 37%
20 | 2.99 ± 0.36 µM | – | – | O=C(Nc1ccc(C(=O)O)cc1)Nc1nc2ccc(F)cc2s1 [Compound K702] | –
21 | < 0.5 µM and 0.3 µM | 3.69 ± 0.41 µM | 12.3 | O=C(Nc1ccc(C(=O)O)cc1)Nc1nc2ccc(Cl)cc2s1 [Compound K703] | –
22 | > 10 µM | – | – | CCOC(=O)c1ccc(NC(=O)Nc2nc3ccc(F)cc3s2)cc1 [Compound K704] | CK1δ inhibition (value in parentheses) [1]: 31%
23 | > 10 µM | – | – | CCOC(=O)c1ccc(NC(=O)Nc2nc3ccc(Cl)cc3s2)cc1 [Compound K705] | CK1δ inhibition (value in parentheses) [1]: 45%
24 | > 10 µM | – | – | COC(=O)c1ccc(NC(=O)Nc2nc3ccc(F)cc3s2)cc1 [Compound K706] | CK1δ inhibition (value in parentheses) [1]: 48%
25 | 8.73 ± 0.71 µM | – | – | COC(=O)c1ccc(NC(=O)Nc2nc3ccc(Cl)cc3s2)cc1 [Compound K707] | –
26 | > 10 µM | – | – | CC(=O)Nc1ccc(NC(=O)Nc2nc3ccc(F)cc3s2)cc1 [Compound K708] | CK1δ inhibition (value in parentheses) [1]: 39%
27 | 1.32 ± 0.15 µM | – | – | CC(=O)Nc1ccc(NC(=O)Nc2nc3ccc(Cl)cc3s2)cc1 [Compound K709] | –
28 | > 10 µM | – | – | COC(=O)c1cc(NC(=O)Nc2nc3ccc(F)cc3s2)ccc1O [Compound K710] | CK1δ inhibition (value in parentheses) [1]: 24%
29 | 9.98 ± 0.96 µM | – | – | COC(=O)c1cc(NC(=O)Nc2nc3ccc(Cl)cc3s2)ccc1O [Compound K711] | –
30 | – | – | – | COc1cc(OC)c(C=C2C(O)=Nc3ccccc32)c(OC)c1 [IC261] | IC50 (CK1δ): 1000 nM; IC50 (CK1ε): 1000 nM
31 | – | – | – | CN(C)CCCN1c2ccccc2Sc2ccccc21 [promazine, reference compound] | Papp at 2.5 h (PAMPA-BBB assay; pig, pH 7.4): 8.1 ± 0.1 ×10⁻⁶ cm/s
